Measured values: the NIST ThermoML archive (doi:10.1021/je9001575)
± gives the expanded uncertainty stated by the source.

Columns and labels:
[1] = Crystal; Adiabatic calorimetry
[2] = molar heat capacity at saturation pressure; details: Liquid, Vacuum adiabatic calorimetry

CC(C)C [2-methylpropane]
Triple point temperature [1]: 113.71 ± 0.07 K
molar heat capacity ([2]; 116.8 K): 99.97 ± 0.3 J/K/mol
molar heat capacity ([2]; 119.57 K): 100.39 ± 0.3 J/K/mol
molar heat capacity ([2]; 122.23 K): 100.86 ± 0.3 J/K/mol
molar heat capacity ([2]; 124.96 K): 101.19 ± 0.3 J/K/mol
molar heat capacity ([2]; 127.55 K): 101.83 ± 0.3 J/K/mol
molar heat capacity ([2]; 130.24 K): 102.1 ± 0.3 J/K/mol
molar heat capacity ([2]; 132.77 K): 102.54 ± 0.3 J/K/mol
molar heat capacity ([2]; 135.42 K): 103.17 ± 0.3 J/K/mol
molar heat capacity ([2]; 137.9 K): 103.68 ± 0.3 J/K/mol
molar heat capacity ([2]; 140.51 K): 103.94 ± 0.3 J/K/mol
molar heat capacity ([2]; 142.95 K): 104.41 ± 0.3 J/K/mol
molar heat capacity ([2]; 145.52 K): 104.91 ± 0.3 J/K/mol
molar heat capacity ([2]; 147.92 K): 105.3 ± 0.3 J/K/mol
molar heat capacity ([2]; 150.47 K): 105.75 ± 0.31 J/K/mol
molar heat capacity ([2]; 152.83 K): 106.16 ± 0.31 J/K/mol
molar heat capacity ([2]; 155.34 K): 106.5 ± 0.31 J/K/mol
molar heat capacity ([2]; 157.66 K): 107.02 ± 0.31 J/K/mol
molar heat capacity ([2]; 160.15 K): 107.18 ± 0.31 J/K/mol
molar heat capacity ([2]; 162.44 K): 107.78 ± 0.31 J/K/mol
molar heat capacity ([2]; 164.89 K): 108.27 ± 0.31 J/K/mol
molar heat capacity ([2]; 167.16 K): 108.62 ± 0.31 J/K/mol
molar heat capacity ([2]; 169.58 K): 109.08 ± 0.31 J/K/mol
molar heat capacity ([2]; 171.82 K): 109.17 ± 0.31 J/K/mol
molar heat capacity ([2]; 174.21 K): 110.08 ± 0.31 J/K/mol
molar heat capacity ([2]; 176.43 K): 110.08 ± 0.31 J/K/mol
molar heat capacity ([2]; 178.8 K): 110.97 ± 0.31 J/K/mol
molar heat capacity ([2]; 180.99 K): 111.25 ± 0.31 J/K/mol
molar heat capacity ([2]; 183.33 K): 112.12 ± 0.31 J/K/mol
molar heat capacity ([2]; 185.5 K): 112 ± 0.31 J/K/mol
molar heat capacity ([2]; 187.82 K): 112.78 ± 0.31 J/K/mol
molar heat capacity ([2]; 189.97 K): 112.81 ± 0.31 J/K/mol
molar heat capacity ([2]; 192.26 K): 113.22 ± 0.31 J/K/mol
molar heat capacity ([2]; 194.39 K): 113.72 ± 0.31 J/K/mol
molar heat capacity ([2]; 196.66 K): 114.21 ± 0.31 J/K/mol
molar heat capacity ([2]; 198.77 K): 114.75 ± 0.32 J/K/mol
molar heat capacity ([2]; 201.01 K): 115.05 ± 0.32 J/K/mol
molar heat capacity ([2]; 203.11 K): 115.61 ± 0.32 J/K/mol
molar heat capacity ([2]; 205.34 K): 115.9 ± 0.32 J/K/mol
molar heat capacity ([2]; 207.41 K): 116.35 ± 0.32 J/K/mol
molar heat capacity ([2]; 209.61 K): 116.79 ± 0.32 J/K/mol
molar heat capacity ([2]; 211.67 K): 117.4 ± 0.32 J/K/mol
molar heat capacity ([2]; 213.86 K): 117.52 ± 0.32 J/K/mol
molar heat capacity ([2]; 215.9 K): 118.12 ± 0.32 J/K/mol
molar heat capacity ([2]; 218.07 K): 118.51 ± 0.32 J/K/mol
molar heat capacity ([2]; 220.09 K): 118.79 ± 0.32 J/K/mol
molar heat capacity ([2]; 222.24 K): 119.63 ± 0.32 J/K/mol
molar heat capacity ([2]; 224.25 K): 119.86 ± 0.32 J/K/mol
molar heat capacity ([2]; 226.39 K): 120.61 ± 0.32 J/K/mol
molar heat capacity ([2]; 228.38 K): 121.07 ± 0.32 J/K/mol
molar heat capacity ([2]; 230.5 K): 121.62 ± 0.32 J/K/mol
molar heat capacity ([2]; 232.48 K): 121.93 ± 0.32 J/K/mol
molar heat capacity ([2]; 234.59 K): 122.3 ± 0.32 J/K/mol
molar heat capacity ([2]; 236.55 K): 122.62 ± 0.32 J/K/mol
molar heat capacity ([2]; 238.65 K): 123.75 ± 0.32 J/K/mol
molar heat capacity ([2]; 240.59 K): 123.7 ± 0.32 J/K/mol
molar heat capacity ([2]; 242.68 K): 124.31 ± 0.32 J/K/mol
molar heat capacity ([2]; 244.61 K): 124.72 ± 0.33 J/K/mol
molar heat capacity ([2]; 246.68 K): 125.15 ± 0.33 J/K/mol
molar heat capacity ([2]; 248.6 K): 125.88 ± 0.33 J/K/mol
molar heat capacity ([2]; 250.66 K): 126.37 ± 0.33 J/K/mol
molar heat capacity ([2]; 252.57 K): 126.78 ± 0.33 J/K/mol
molar heat capacity ([2]; 254.62 K): 127.78 ± 0.33 J/K/mol
molar heat capacity ([2]; 256.52 K): 127.81 ± 0.33 J/K/mol
molar heat capacity ([2]; 258.55 K): 128.92 ± 0.33 J/K/mol
molar heat capacity ([2]; 260.45 K): 128.69 ± 0.33 J/K/mol
molar heat capacity ([2]; 262.47 K): 129.62 ± 0.33 J/K/mol
molar heat capacity ([2]; 264.35 K): 129.86 ± 0.33 J/K/mol
molar heat capacity ([2]; 266.37 K): 130.48 ± 0.33 J/K/mol
molar heat capacity ([2]; 268.24 K): 131.47 ± 0.33 J/K/mol
molar heat capacity ([2]; 270.24 K): 131.7 ± 0.33 J/K/mol
molar heat capacity ([2]; 272.11 K): 132.45 ± 0.33 J/K/mol
molar heat capacity ([2]; 274.1 K): 133.44 ± 0.33 J/K/mol
molar heat capacity ([2]; 275.96 K): 133.56 ± 0.33 J/K/mol
molar heat capacity ([2]; 277.94 K): 134.24 ± 0.33 J/K/mol
molar heat capacity ([2]; 279.8 K): 134.7 ± 0.34 J/K/mol
molar heat capacity ([2]; 281.76 K): 135.37 ± 0.34 J/K/mol
molar heat capacity ([2]; 283.62 K): 135.69 ± 0.34 J/K/mol
molar heat capacity ([2]; 285.57 K): 136.15 ± 0.34 J/K/mol
molar heat capacity ([2]; 287.43 K): 137.7 ± 0.34 J/K/mol
molar heat capacity ([2]; 289.37 K): 137.5 ± 0.34 J/K/mol
molar heat capacity ([2]; 291.23 K): 138.84 ± 0.34 J/K/mol
molar heat capacity ([2]; 293.15 K): 139.14 ± 0.34 J/K/mol
molar heat capacity ([2]; 295.01 K): 139.36 ± 0.34 J/K/mol
molar heat capacity ([2]; 296.93 K): 140.12 ± 0.34 J/K/mol
molar heat capacity ([2]; 298.78 K): 140.84 ± 0.34 J/K/mol
molar heat capacity ([2]; 300.68 K): 141.15 ± 0.34 J/K/mol
molar heat capacity ([2]; 302.54 K): 142.6 ± 0.34 J/K/mol
molar heat capacity ([2]; 306.3 K): 143.77 ± 0.34 J/K/mol
molar heat capacity ([2]; 308.17 K): 143.87 ± 0.34 J/K/mol
molar heat capacity ([2]; 310.04 K): 144.87 ± 0.34 J/K/mol
molar heat capacity ([2]; 311.91 K): 146 ± 0.35 J/K/mol
molar heat capacity ([2]; 313.77 K): 146.62 ± 0.35 J/K/mol
molar heat capacity ([2]; 315.63 K): 147.42 ± 0.35 J/K/mol
